The numbers were not newly measured in patent publication US6849609B2, “Method and composition for controlled release acarbose formulations” (priority 2001, dated 2005), which cites them from elsewhere.

The data set relates to patients.

With `C[C@H]1O[C@H](O[C@H]2[C@H](O)[C@@H](O)[C@@H](O[C@H]3[C@H](O)[C@@H](O)C(O)O[C@@H]3CO)O[C@@H]2CO)[C@H](O)[C@@H](O)[C@@H]1N[C@H]1C=C(CO)[C@@H](O)[C@H](O)[C@H]1O` (some centres unmarked) [Acarbose], the hypoglycemia entry (acarbose alone, even when administered to patients in a fasted state) is “has not been shown to cause hypoglycemia”. In addition, the “most common adverse events” value (patients taking acarbose, shown to abate with time) was “flatulence, diarrhea and abdominal discomfort”.
